Laboratory results reported in patent US10221153B2, “Dibenzothiophene compounds” (Saint Louis University, priority 2017, dated 2019).
“Also recorded” adds a separate entry of the source.

Key:
[1] = Photophysical analysis: absorption, excitation and emission at 10 μM (Example 5); assay type: physicochemical
Procedure: All data were collected on a SHIMAZDU Spectrofluorometer RF-5301PC. Solutions of the respective compounds were prepared in acetonitrile at approximately 1 mM concentration. Solutions (4 mL) were added to a freshly washed quartz cuvette for measurements. The excitation wavelength was varied between 270 nm and 390 nm in 20 nm intervals until the greatest intensity emission was detected. The emission spectra ranges started at 20 nm to the red of the chosen excitation wavelength up to 780 nm. Scan speed was set at “Very Fast” with both the slit widths set to 1.5 mm.
All data were collected on a SHIMAZDU Spectrofluorometer RF-5301PC. Solutions of the respective compounds were prepared in acetonitrile at approximately 1 mM concentration. Solutions (4 mL) were added to a freshly washed quartz cuvette for measurements. The monitored emission wavelength was set using the high intensity emission from the respective molecule. The scanning range was from 220 nm through 770 nm. Scan speed was set at “Very Fast” with both the slit widths set to 1.5 mm.
Excitation/emission data for compounds 6b, 7b, 8b, 15b, 16b, and 17b were collected using the methods described in Example 3 but using a lower concentration of acetonitrile (10 μM). Compounds 15b, 16b and 17b and their parent molecules (6b, 7b and 8b) all luminesce in the visible range and their optical properties are described in Table 4. […] The wavelength of λex for the excitation scan corresponds to excitation to S1, which leads to emission. This λex for all the molecules were red shifted, or shifted to the direction of longer wavelengths, from the peak absorption by an average 40 nm.

[2] = tested on: HeLa human cervical carcinoma cell line; assay: Cell imaging of HeLa cells incubated with compound, fluorescence microscopy; assay type: cell-based; conditions: 1 μM
Procedure: HeLa human cervical carcinoma cell line was obtained from ATCC (Manassas, Va.). The cells were cultured in a humidified incubator at 5% CO2 and 37° C. The cell line was grown in D-MEM (Invitrogen) high glucose supplemented with 10.0% fetal bovine serum (Invitrogen, Carlsbad, Calif.) and 1.0% Penicillin/Streptomycin (Invitrogen, Carlsbad, Calif.) for an environment suitable for cell growth. The culture was sub-cultured every three days to maintain normal cell growth.
Sterile glass PDL coated #1.5 cover slips (NeuVitro), pre-incubated with culture medium, were placed in sterile 6-well plates. Single cell suspension of the HeLa (cervical cancer cells taken from patient Henrietta Lacks) cell line was prepared at 5×10^4 cells ml^−1 in the appropriate medium. Volumes of 2.0 mL were pipetted into each of the wells containing the coverslips. The 6-well plate was left overnight at 37.0° C. in a 5.0% CO2 incubator. Following the overnight incubation, the plate was aspirated dry and then fresh culture medium, containing the drug (at 1.0 μM and 0.10% DMSO) in a volume of 2.0 mL, was gently pipetted onto the cell monolayers attached to the glass cover slips. Cells on the cover slips were exposed to the drug for approximately 2 hours. Cells were washed with PBS and treated with 4.0% paraformaldehyde solution prepared in PBS, incubated for 30 minutes at room temperature for […]. Several washes with PBS were completed to ensure excess solution was rinsed away. Glass cover slips were removed and mounted on slides with ProLong Gold Antifade Mountant (ThermoFisher Scientific). The specimen was dried for several minutes and sealed with clear nail polish before visualized under a microscope
Cell Image Captures: All images were captured with a Leica DM 4000 B microscope with a DFC3000G camera (Leica Microsystems, Germany) and 63× oil immersion lens. HeLa cells were staged according to the method above. Leica LASX Core Software (Leica Microsystems, Germany) was used to acquire the images.
Stained cells were clearly observed by exciting the cells with a broadly emitting lamp using DAPI filter set. Luminescence was observed within the cell bodies of the HeLa cells upon excitation of the UV wavelengths. The excitation wavelength was 350 nm and the emission wavelength was approximately 400 nm. FIG. 14 depicts representative images of HeLa cervical cancer cell lines incubated with Compounds 16b, 15b, and 17b (1 μM) for 120 min. Bright field images of cells incubated with compounds 16b, 15b, and 17b are shown in Panels A, D, and G, respectively. Luminescence from each compound (16b, 15b, and 17b) is shown in Panels B, E, and H, respectively, with UV laser radiation.

HeLa cells = assay: Anti-proliferation (MTS) assay, HeLa cells, 72 hours; assay type: cell-based, human; conditions: 1 nM to 100 μM
Procedure: To determine whether long-term exposure to each compound could be toxic to cells, Hela cells were treated with varying concentrations of Compounds 16b, 15b and 17b for 72 hours. An anti-proliferation protocol was carried out by testing chosen compounds on the growth of the human cervical cancer cell lines. HeLa cells were cultured in their respective media supplemented with 10.0% FBS (fetal bovine serum) and 1.0% Pen/Strep. Cells (1,000 cells/100 μL per well) were plated in a 96-well culture plate (TC treated, Greiner) and incubated for 24 h. 50 μL (DMSO <1%) of the compound at final concentrations 100 μM, 10 μM, 1 μM, 100 nM, 10 nM, and 1 nM were added to the appropriate wells. Triplicates wells were performed for each compound, on three identical plates.
After incubation of the cells, at 37° C. in a humidified atmosphere of 5% CO2 for 72 hours, the cells were stained and incubated with MTS (3-(4,5-dimethylthiazol-2-yl)-5-(3-carboxymethoxyphenyl)-2-(4-sulfophenyl)-2H-tetrazolium) reagent in the presence of PMS (phenazine methosulfate) reagent for 2 hours to determine cell viability. An MTS assay is based on the reduction of the MTS tetrazolium compound by viable cells to generate a colored formazan dye that is soluble in cell culture media. The absorbance of each well was taken at 490 nm using a multimode plate reader (FlexStation 3, Molecular Devices, San Diego, Calif.). GraphPad Prism was used to analyze transposed data to determine the percent viability. […] Each compound was tested in at least triplicate.

[3] = Photophysical analysis: absorption, excitation and emission at 10 μM (Example 5); assay type: physicochemical; conditions: EtOH at 10 μM
[4] = Quantum yield by single-point method; conditions: single-point method in EtOH

O=S(=O)([O-])c1ccc2c(c1)-c1cc(-c3cccc4ccccc34)ccc1S2(=O)=O.[Na+] [Compound 17b, sodium 8-(naphthalen-1-yl)dibenzo[b,d]thiophene-2-sulfonate 5,5-dioxide]
log εex (molar extinction coefficient at excitation wavelength) [1]: 4.36 M^−1 cm^−1
λabs ([1]; acetonitrile at 10 μM): 250 nm
λem ([1]; acetonitrile at 10 μM): 421 nm
λex (excitation wavelength) ([1]; acetonitrile at 10 μM (footnotes a,b)): 274 nm
Stokes Shift ([1]; calculated from excitation wavelength, acetonitrile at 10 μM): 147 nm
λex ([1]; footnotes a,g: acetonitrile at 10 μM / EtOH at 10 μM): 274 nm
luminescence intensity in cells ([2]; 120 min, excitation 350 nm, emission approximately 400 nm): slight luminescence
location of luminescence in the cell ([2]; 120 min, merged bright field and UV images): luminescence is clearly identified within the nucleus of the cell
effect on cell morphology ([2]; FIG. 14 panel G): seemed to influence the morphology of HeLa cells
cytotoxicity / decrease in cell viability (HeLa cells): do not show any decrease in cell viability at any concentration tested; also recorded: no observed cytotoxicity
log εmax (maximum molar extinction coefficient) [3]: 4.67 M^−1 cm^−1
λem [3]: 428 nm
φ (quantum yield) [4]: 0.55
